# Data reported in the kinase profiling compilation of Christmann-Franck et al. (2016).
# Values joined by “and” are separate entries in the source; they are usually repeats but may differ in a detail not shown here. Identical values can stand only once.
# Legend:
# Assay in all cases: radiometric filter-binding kinase assay, Kinase HotSpot
# Conditions in all cases: compound 0.5 µM; ATP 10 µM
# [1] = molecular target: AKT3 (human) (UniProt Q9Y243)
# [2] = molecular target: CAMK2A (human) (UniProt Q9UQM7)
# [3] = molecular target: CAMK2B (human) (UniProt Q13554)
# [4] = molecular target: CAMK2D (human) (UniProt Q13557)
# [5] = molecular target: CAMK2G (human) (UniProt Q13555)
# [6] = molecular target: CDK2 CCNE1 (human) (UniProt P24941+P24864)
# [7] = molecular target: CDK4 CCND1 (human) (UniProt P24385+P11802)
# [8] = molecular target: CDK4 CCND3 (human) (UniProt P30281+P11802)
# [9] = molecular target: CDK6 CCND3 (human) (UniProt P30281+Q00534)
# [10] = molecular target: CHEK1 (human) (UniProt O14757)
# [11] = molecular target: CLK1 (human) (UniProt P49759)
# [12] = molecular target: DAPK2 (human) (UniProt Q9UIK4)
# [13] = molecular target: DAPK3 (human) (UniProt O43293)
# [14] = molecular target: EPHB3 (human) (UniProt P54753)
# [15] = molecular target: HIPK1 (human) (UniProt Q86Z02)
# [16] = molecular target: IKBKE (human) (UniProt Q14164)
# [17] = molecular target: IRAK1 (human) (UniProt P51617)
# [18] = molecular target: ITK (human) (UniProt Q08881)
# [19] = molecular target: JAK3 JH1 JH2 (human) (UniProt P52333)
# [20] = molecular target: MAP4K2 (human) (UniProt Q12851)
# [21] = molecular target: MKNK2 (human) (UniProt Q9HBH9)
# [22] = molecular target: PAK1 (human) (UniProt Q13153)
# [23] = molecular target: PBK (human) (UniProt Q96KB5)
# [24] = molecular target: PNCK (human) (UniProt Q6P2M8)
# [25] = molecular target: PRKACA (human) (UniProt P17612)
# [26] = molecular target: PRKCA (human) (UniProt P17252)
# [27] = molecular target: PRKD3 (human) (UniProt O94806)
# [28] = molecular target: PRKG1 (human) (UniProt Q13976)
# [29] = molecular target: RET (human) (UniProt P07949)
# [30] = molecular target: SGK3 (human) (UniProt Q96BR1)
# [31] = molecular target: SRPK2 (human) (UniProt P78362)
# [32] = molecular target: SRPK3 (human) (UniProt Q9UPE1)
# [33] = molecular target: STK24 (human) (UniProt Q9Y6E0)
# [34] = molecular target: STK38 (human) (UniProt Q15208)
# [35] = molecular target: SYK (human) (UniProt P43405)
# [36] = molecular target: TAOK1 (human) (UniProt Q7L7X3)
# [37] = molecular target: TBK1 (human) (UniProt Q9UHD2)
# [38] = molecular target: TEC (human) (UniProt P42680)
# [39] = molecular target: TGFBR2 (human) (UniProt P37173)
# [40] = molecular target: TSSK2 (human) (UniProt Q96PF2)
# [41] = molecular target: VRK1 (human) (UniProt Q99986)
# [42] = molecular target: FRK (human) (UniProt P42685)
# PRKG1 (human), sequence (Q13976 whole entry, looked up): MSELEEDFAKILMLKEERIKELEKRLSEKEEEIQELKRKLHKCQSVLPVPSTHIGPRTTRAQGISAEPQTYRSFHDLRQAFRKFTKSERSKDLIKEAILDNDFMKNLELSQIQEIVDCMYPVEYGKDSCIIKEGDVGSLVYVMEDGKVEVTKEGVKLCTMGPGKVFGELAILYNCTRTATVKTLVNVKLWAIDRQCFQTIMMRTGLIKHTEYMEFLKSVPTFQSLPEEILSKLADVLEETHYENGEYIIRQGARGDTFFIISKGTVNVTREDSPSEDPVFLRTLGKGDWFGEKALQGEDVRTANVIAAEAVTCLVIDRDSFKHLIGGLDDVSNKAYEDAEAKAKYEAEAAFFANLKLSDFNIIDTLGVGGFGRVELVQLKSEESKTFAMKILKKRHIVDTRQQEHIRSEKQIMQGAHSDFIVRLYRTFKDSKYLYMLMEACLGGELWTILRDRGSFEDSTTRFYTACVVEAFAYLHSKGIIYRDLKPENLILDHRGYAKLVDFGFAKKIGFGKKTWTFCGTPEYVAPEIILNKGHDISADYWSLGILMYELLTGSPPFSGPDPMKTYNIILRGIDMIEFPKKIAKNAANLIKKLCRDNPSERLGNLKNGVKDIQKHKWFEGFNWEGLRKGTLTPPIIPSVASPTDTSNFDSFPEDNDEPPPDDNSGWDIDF
# RET (human), sequence (P07949 whole entry, looked up): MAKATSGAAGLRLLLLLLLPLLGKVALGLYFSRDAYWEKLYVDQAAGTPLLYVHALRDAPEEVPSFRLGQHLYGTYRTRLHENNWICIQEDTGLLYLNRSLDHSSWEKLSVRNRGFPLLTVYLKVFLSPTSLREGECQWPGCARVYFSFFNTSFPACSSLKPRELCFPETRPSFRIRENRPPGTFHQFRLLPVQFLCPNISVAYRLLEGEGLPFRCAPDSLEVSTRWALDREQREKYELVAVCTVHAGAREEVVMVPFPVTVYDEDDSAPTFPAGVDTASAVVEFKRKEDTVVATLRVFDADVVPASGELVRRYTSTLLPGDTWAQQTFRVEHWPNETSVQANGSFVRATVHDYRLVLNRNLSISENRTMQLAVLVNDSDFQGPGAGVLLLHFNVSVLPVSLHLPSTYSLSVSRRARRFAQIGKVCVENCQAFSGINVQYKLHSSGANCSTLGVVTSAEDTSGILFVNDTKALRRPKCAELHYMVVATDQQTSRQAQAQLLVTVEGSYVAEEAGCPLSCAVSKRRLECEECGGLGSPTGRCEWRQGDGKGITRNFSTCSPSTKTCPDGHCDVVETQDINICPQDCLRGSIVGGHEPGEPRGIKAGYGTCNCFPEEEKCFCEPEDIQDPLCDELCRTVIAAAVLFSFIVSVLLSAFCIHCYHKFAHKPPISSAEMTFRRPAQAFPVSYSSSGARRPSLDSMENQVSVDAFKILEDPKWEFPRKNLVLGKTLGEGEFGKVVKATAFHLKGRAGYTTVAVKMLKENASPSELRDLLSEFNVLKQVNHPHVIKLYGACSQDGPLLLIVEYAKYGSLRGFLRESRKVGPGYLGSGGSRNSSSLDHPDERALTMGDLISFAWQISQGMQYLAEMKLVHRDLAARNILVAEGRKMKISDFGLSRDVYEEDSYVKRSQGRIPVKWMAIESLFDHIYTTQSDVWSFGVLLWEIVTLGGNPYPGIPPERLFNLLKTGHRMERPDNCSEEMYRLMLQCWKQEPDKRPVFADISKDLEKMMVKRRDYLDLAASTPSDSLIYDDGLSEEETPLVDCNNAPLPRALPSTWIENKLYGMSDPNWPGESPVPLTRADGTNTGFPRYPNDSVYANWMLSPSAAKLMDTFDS
# AKT3 (human), sequence (Q9Y243 whole entry, looked up): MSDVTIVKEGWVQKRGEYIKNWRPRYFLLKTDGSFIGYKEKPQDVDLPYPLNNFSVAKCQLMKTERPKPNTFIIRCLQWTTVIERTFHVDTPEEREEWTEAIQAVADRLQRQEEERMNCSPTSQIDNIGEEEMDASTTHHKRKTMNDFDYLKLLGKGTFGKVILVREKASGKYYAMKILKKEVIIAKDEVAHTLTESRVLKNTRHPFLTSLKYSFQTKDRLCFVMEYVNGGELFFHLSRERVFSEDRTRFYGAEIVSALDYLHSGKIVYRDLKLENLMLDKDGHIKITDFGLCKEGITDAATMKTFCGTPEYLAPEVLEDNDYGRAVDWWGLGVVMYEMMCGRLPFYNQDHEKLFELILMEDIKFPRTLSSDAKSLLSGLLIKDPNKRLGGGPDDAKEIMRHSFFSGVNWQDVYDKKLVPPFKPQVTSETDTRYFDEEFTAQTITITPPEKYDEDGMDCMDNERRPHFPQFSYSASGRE
# PRKD3 (human), sequence (O94806 whole entry, looked up): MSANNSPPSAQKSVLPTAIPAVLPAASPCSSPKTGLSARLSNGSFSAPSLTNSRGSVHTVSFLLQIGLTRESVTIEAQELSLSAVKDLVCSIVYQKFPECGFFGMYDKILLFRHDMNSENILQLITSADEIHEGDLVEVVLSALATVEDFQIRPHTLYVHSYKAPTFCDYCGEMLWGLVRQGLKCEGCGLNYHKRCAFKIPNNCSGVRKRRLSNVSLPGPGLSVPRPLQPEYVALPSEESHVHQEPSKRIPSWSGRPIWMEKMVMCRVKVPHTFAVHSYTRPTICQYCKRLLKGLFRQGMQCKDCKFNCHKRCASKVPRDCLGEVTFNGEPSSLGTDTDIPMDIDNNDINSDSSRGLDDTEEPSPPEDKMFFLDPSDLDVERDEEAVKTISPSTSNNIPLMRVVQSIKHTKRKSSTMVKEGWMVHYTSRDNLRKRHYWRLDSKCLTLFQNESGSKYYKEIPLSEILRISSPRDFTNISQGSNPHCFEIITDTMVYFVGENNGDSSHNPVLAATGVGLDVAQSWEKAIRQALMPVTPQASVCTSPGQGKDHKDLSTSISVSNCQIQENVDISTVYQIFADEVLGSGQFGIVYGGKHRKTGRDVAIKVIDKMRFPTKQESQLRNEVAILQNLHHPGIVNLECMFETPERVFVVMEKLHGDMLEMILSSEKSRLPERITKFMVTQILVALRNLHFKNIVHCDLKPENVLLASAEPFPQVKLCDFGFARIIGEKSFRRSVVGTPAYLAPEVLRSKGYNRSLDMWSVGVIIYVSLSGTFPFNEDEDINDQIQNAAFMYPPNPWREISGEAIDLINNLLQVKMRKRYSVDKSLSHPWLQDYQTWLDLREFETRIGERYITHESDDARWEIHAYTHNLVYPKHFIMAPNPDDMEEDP
# DAPK3 (human), sequence (O43293 whole entry, looked up): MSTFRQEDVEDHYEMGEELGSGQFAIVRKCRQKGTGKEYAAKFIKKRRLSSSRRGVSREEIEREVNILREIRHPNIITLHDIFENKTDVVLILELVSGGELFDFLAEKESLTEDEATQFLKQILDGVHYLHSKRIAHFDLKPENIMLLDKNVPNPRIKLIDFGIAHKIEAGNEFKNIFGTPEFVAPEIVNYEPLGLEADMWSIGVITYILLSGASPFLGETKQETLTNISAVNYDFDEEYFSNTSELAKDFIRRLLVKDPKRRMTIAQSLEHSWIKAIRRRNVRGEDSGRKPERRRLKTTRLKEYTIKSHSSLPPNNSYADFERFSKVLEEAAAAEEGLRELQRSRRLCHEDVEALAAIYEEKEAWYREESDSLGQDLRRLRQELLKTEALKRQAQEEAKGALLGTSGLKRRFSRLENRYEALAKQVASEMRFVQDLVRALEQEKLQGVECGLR
# STK24 (human), sequence (Q9Y6E0 whole entry, looked up): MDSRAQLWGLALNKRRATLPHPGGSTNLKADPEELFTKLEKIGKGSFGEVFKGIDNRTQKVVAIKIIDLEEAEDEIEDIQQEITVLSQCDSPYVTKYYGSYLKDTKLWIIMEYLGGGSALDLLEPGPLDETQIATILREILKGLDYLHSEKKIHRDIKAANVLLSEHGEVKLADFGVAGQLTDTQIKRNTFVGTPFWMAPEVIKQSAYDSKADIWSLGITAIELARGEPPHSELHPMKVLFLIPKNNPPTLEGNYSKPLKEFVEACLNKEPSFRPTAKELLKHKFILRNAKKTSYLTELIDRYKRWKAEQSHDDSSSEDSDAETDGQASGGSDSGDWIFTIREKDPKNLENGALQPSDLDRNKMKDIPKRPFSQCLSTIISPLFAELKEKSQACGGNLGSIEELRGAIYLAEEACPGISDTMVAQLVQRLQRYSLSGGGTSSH
# PBK (human), sequence (Q96KB5 whole entry, looked up): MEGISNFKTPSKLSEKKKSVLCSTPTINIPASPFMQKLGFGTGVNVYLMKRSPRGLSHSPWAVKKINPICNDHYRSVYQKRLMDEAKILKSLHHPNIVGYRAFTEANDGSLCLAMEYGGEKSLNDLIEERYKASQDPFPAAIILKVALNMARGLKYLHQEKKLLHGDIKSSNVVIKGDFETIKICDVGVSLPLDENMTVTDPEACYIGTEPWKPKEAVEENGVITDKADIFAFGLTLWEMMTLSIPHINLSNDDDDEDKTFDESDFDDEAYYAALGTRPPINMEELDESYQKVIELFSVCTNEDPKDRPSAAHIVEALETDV
# PNCK (human), sequence (Q6P2M8 whole entry, looked up): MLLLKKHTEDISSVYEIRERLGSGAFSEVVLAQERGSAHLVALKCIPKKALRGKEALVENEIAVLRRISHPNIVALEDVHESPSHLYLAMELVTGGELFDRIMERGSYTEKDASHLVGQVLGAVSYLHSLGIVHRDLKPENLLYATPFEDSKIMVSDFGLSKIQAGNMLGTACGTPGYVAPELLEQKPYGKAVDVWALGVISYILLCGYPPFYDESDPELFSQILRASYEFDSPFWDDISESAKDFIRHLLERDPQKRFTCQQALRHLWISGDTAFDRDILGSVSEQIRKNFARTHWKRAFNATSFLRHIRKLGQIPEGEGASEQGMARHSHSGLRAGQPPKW
smiles,measurement,setting,value
CNC(=O)c1cc(Oc2ccc(NC(=O)Nc3ccc(Cl)c(C(F)(F)F)c3)cc2)ccn1,residual activity,[1],94.2%
same,residual activity,[2],95.3%
same,residual activity,[3],96.7%
same,residual activity,[4],102%
same,residual activity,[5],108%
same,residual activity,[6],98.2%
same,residual activity,[7],96.2%
same,residual activity,[8],114%
same,residual activity,[9],104%
same,residual activity,[10],173%
same,residual activity,[11],97.7%
same,residual activity,[12],111%
same,residual activity,[13],92.9%
same,residual activity,[14],95.5%
same,residual activity,[15],99.7%
same,residual activity,[16],89.8%
same,residual activity,[17],101%
same,residual activity,[18],106%
same,residual activity,[19],99.4%
same,residual activity,[20],108%
same,residual activity,[21],70.3%
same,residual activity,[22],108%
same,residual activity,[23],97.5%
same,residual activity,[24],94.7%
same,residual activity,[25],92.6%
same,residual activity,[26],96.8%
same,residual activity,[27],94%
same,residual activity,[28],104% and 88.6%
same,residual activity,[29],1.78%
same,residual activity,[30],101%
same,residual activity,[31],102%
same,residual activity,[32],88.4%
same,residual activity,[33],110%
same,residual activity,[34],99.8%
same,residual activity,[35],101%
same,residual activity,[36],82%
same,residual activity,[37],98.6%
same,residual activity,[38],101%
same,residual activity,[39],99.9%
same,residual activity,[40],102%
same,residual activity,[41],99.3%
CCOC(=O)c1c(C)[nH]c(/C=C2\C(=O)Nc3ccccc32)c1C,residual activity,[1],103%
same,residual activity,[2],96.8%
same,residual activity,[3],96%
same,residual activity,[4],93.9%
same,residual activity,[5],97.6%
same,residual activity,[6],95.6%
same,residual activity,[7],103%
same,residual activity,[8],106%
same,residual activity,[9],84.7%
same,residual activity,[10],89.4%
same,residual activity,[11],98.2%
same,residual activity,[12],96.3%
same,residual activity,[13],85.1%
same,residual activity,[14],94.4%
same,residual activity,[42],95.3%
same,residual activity,[15],97.3%
same,residual activity,[16],93.5%
same,residual activity,[17],111%
same,residual activity,[18],86.3%
same,residual activity,[19],69.1%
same,residual activity,[20],95.5%
same,residual activity,[21],87.4%
same,residual activity,[22],99.9%
same,residual activity,[23],85%
same,residual activity,[24],88.6%
same,residual activity,[25],97.3%
same,residual activity,[27],90.1%
same,residual activity,[28],78.3% and 92.8%
same,residual activity,[29],40.8%
same,residual activity,[30],88.1%
same,residual activity,[31],92.3%
same,residual activity,[32],88.8%
same,residual activity,[33],82.5%
same,residual activity,[34],101%
same,residual activity,[35],89.3%
same,residual activity,[36],100%
same,residual activity,[37],70.5%
same,residual activity,[38],141%
same,residual activity,[39],101%
same,residual activity,[40],95.9%
same,residual activity,[41],104%
